Data reported in the supplement of paper PMC10307832.

Legend:
Experiment in all cases: relative viability (nuclei count vs DMSO), 5 days (fraction); higher = more cells survive
Bosutinib = compound: COc1cc(Nc2c(C#N)cnc3cc(OCCCN4CCN(C)CC4)c(OC)cc23)c(Cl)cc1Cl [Bosutinib]
How it was run: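 Vehicle-anchored 1536-well plates of lung cancer cell lines, held overnight at 37 °C, were pinned with five library-drug doses (not always all listed) spaced by √10. No medium change followed over the next 5 days, after which the cells were fixed, permeabilised and Hoechst-stained together and imaged at 4×. Nuclei were counted with MetaXpress, and viability is treated-well nuclei over vehicle-well nuclei, taken as a median across plates. Plates passed with control CV below 25% and at least one doubling.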

Bosutinib + Trametinib = compound: COc1cc(Nc2c(C#N)cnc3cc(OCCCN4CCN(C)CC4)c(OC)cc23)c(Cl)cc1Cl [Bosutinib] + CC(=O)Nc1cccc(-n2c(=O)n(C3CC3)c(=O)c3c(Nc4ccc(I)cc4F)n(C)c(=O)c(C)c32)c1 [Trametinib] (partner 0.02 µM)
How it was run: (§1)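 Relative viability divides the nuclei count in treated wells by that in vehicle wells. Lung cancer cell lines were seeded in 1536-well plates, dosed by pin tool the next day, and fixed and stained after 5 days in one step with final 0.05% Triton X-100, 1% formaldehyde and 1 ug/ml Hoechst. Dosing was a single drug or a fixed anchor-drug dose plus five library-drug doses (not always all listed) in √10 steps, and values are medians of duplicate plates imaged at 4×.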

Bosutinib + Palbociclib = compound: COc1cc(Nc2c(C#N)cnc3cc(OCCCN4CCN(C)CC4)c(OC)cc23)c(Cl)cc1Cl [Bosutinib] + CC(=O)c1c(C)c2cnc(Nc3ccc(N4CCNCC4)cn3)nc2n(C2CCCC2)c1=O [Palbociclib] (partner 0.5 µM)
How it was run: as §1

Bosutinib + Luminespib = compound: COc1cc(Nc2c(C#N)cnc3cc(OCCCN4CCN(C)CC4)c(OC)cc23)c(Cl)cc1Cl [Bosutinib] + CCNC(=O)c1noc(-c2cc(C(C)C)c(O)cc2O)c1-c1ccc(CN2CCOCC2)cc1 [Luminespib] (partner 0.01 µM)
How it was run: as §1

Bosutinib + Foretinib = compound: COc1cc(Nc2c(C#N)cnc3cc(OCCCN4CCN(C)CC4)c(OC)cc23)c(Cl)cc1Cl [Bosutinib] + COc1cc2c(Oc3ccc(NC(=O)C4(C(=O)Nc5ccc(F)cc5)CC4)cc3F)ccnc2cc1OCCCN1CCOCC1 [Foretinib] (partner 0.25 µM)
How it was run: as §1

Bosutinib + OSI-027 = compound: COc1cc(Nc2c(C#N)cnc3cc(OCCCN4CCN(C)CC4)c(OC)cc23)c(Cl)cc1Cl [Bosutinib] + COc1cccc2cc(-c3nc([C@H]4CC[C@H](C(=O)O)CC4)n4ncnc(N)c34)[nH]c12 [OSI-027] (partner 0.5 µM)
How it was run: as §1

Bosutinib + Tozasertib = compound: COc1cc(Nc2c(C#N)cnc3cc(OCCCN4CCN(C)CC4)c(OC)cc23)c(Cl)cc1Cl [Bosutinib] + Cc1cc(Nc2cc(N3CCN(C)CC3)nc(Sc3ccc(NC(=O)C4CC4)cc3)n2)n[nH]1 [Tozasertib] (partner 0.1 µM)
How it was run: as §1

Bosutinib + Dasatinib = compound: COc1cc(Nc2c(C#N)cnc3cc(OCCCN4CCN(C)CC4)c(OC)cc23)c(Cl)cc1Cl [Bosutinib] + Cc1nc(Nc2ncc(C(=O)Nc3c(C)cccc3Cl)s2)cc(N2CCN(CCO)CC2)n1 [Dasatinib] (partner 0.075 µM)
How it was run: as §1

Bosutinib + Phenformin = compound: COc1cc(Nc2c(C#N)cnc3cc(OCCCN4CCN(C)CC4)c(OC)cc23)c(Cl)cc1Cl [Bosutinib] + N=C(N)NC(=N)NCCc1ccccc1 [Phenformin] (partner 250 µM)
How it was run: as §1

Bosutinib + AZD7762 = compound: COc1cc(Nc2c(C#N)cnc3cc(OCCCN4CCN(C)CC4)c(OC)cc23)c(Cl)cc1Cl [Bosutinib] + NC(=O)Nc1cc(-c2cccc(F)c2)sc1C(=O)N[C@H]1CCCNC1 [AZD7762] (partner 0.2 µM)
How it was run: as §1

Bosutinib + Pemetrexed = compound: COc1cc(Nc2c(C#N)cnc3cc(OCCCN4CCN(C)CC4)c(OC)cc23)c(Cl)cc1Cl [Bosutinib] + Nc1nc2[nH]cc(CCc3ccc(C(=O)N[C@@H](CCC(=O)O)C(=O)O)cc3)c2c(=O)[nH]1 [Pemetrexed] (partner 0.2 µM)
How it was run: as §1

Bosutinib + Decitabine = compound: COc1cc(Nc2c(C#N)cnc3cc(OCCCN4CCN(C)CC4)c(OC)cc23)c(Cl)cc1Cl [Bosutinib] + Nc1ncn([C@H]2C[C@H](O)[C@@H](CO)O2)c(=O)n1 [Decitabine] (partner 2 µM)
How it was run: as §1

Bosutinib + Vorinostat = compound: COc1cc(Nc2c(C#N)cnc3cc(OCCCN4CCN(C)CC4)c(OC)cc23)c(Cl)cc1Cl [Bosutinib] + O=C(CCCCCCC(=O)Nc1ccccc1)NO [Vorinostat] (partner 1 µM)
How it was run: as §1

Bosutinib + Olaparib = compound: COc1cc(Nc2c(C#N)cnc3cc(OCCCN4CCN(C)CC4)c(OC)cc23)c(Cl)cc1Cl [Bosutinib] + O=C(c1cc(Cc2n[nH]c(=O)c3ccccc23)ccc1F)N1CCN(C(=O)C2CC2)CC1 [Olaparib] (partner 8 µM)
How it was run: as §1

## SW 900
Bosutinib; 0.01 µM
  relative viability: 0.856
Bosutinib; 0.03162 µM
  relative viability: 0.706
Bosutinib; 0.1 µM
  relative viability: 0.801
Bosutinib; 1 µM
  relative viability: 0.815
Bosutinib + Trametinib; first compound 0.01 µM
  relative viability: 0.809
Bosutinib + Trametinib; first compound 0.03162 µM
  relative viability: 0.674
Bosutinib + Trametinib; first compound 0.1 µM
  relative viability: 0.784
Bosutinib + Trametinib; first compound 1 µM
  relative viability: 0.61
Bosutinib + Palbociclib; first compound 0.01 µM
  relative viability: 0.524
Bosutinib + Palbociclib; first compound 0.03162 µM
  relative viability: 0.525
Bosutinib + Palbociclib; first compound 0.1 µM
  relative viability: 0.5
Bosutinib + Palbociclib; first compound 1 µM
  relative viability: 0.352
Bosutinib + Luminespib; first compound 0.01 µM
  relative viability: 0.154
Bosutinib + Luminespib; first compound 0.1 µM
  relative viability: 0.183
Bosutinib + Luminespib; first compound 1 µM
  relative viability: 0.15
Bosutinib + Foretinib; first compound 0.01 µM
  relative viability: 0.806
Bosutinib + Foretinib; first compound 0.1 µM
  relative viability: 1.04
Bosutinib + Foretinib; first compound 1 µM
  relative viability: 0.721
Bosutinib + OSI-027; first compound 0.01 µM
  relative viability: 0.51
Bosutinib + OSI-027; first compound 0.1 µM
  relative viability: 0.591
Bosutinib + OSI-027; first compound 1 µM
  relative viability: 0.455
Bosutinib + Tozasertib; first compound 0.01 µM
  relative viability: 0.521
Bosutinib + Tozasertib; first compound 0.1 µM
  relative viability: 0.586
Bosutinib + Tozasertib; first compound 1 µM
  relative viability: 0.507
Bosutinib + Dasatinib; first compound 0.01 µM
  relative viability: 0.774
Bosutinib + Dasatinib; first compound 0.1 µM
  relative viability: 0.682
Bosutinib + Dasatinib; first compound 1 µM
  relative viability: 0.749
Bosutinib + Phenformin; first compound 0.01 µM
  relative viability: 0.577
Bosutinib + Phenformin; first compound 0.1 µM
  relative viability: 0.686
Bosutinib + Phenformin; first compound 1 µM
  relative viability: 0.458
Bosutinib + AZD7762; first compound 0.01 µM
  relative viability: 0.624
Bosutinib + AZD7762; first compound 0.03162 µM
  relative viability: 0.589
Bosutinib + AZD7762; first compound 0.1 µM
  relative viability: 0.581
Bosutinib + AZD7762; first compound 1 µM
  relative viability: 0.482
Bosutinib + Pemetrexed; first compound 0.01 µM
  relative viability: 0.465
Bosutinib + Pemetrexed; first compound 0.03162 µM
  relative viability: 0.501
Bosutinib + Pemetrexed; first compound 0.1 µM
  relative viability: 0.462
Bosutinib + Pemetrexed; first compound 1 µM
  relative viability: 0.39
Bosutinib + Decitabine; first compound 0.01 µM
  relative viability: 0.408
Bosutinib + Decitabine; first compound 0.03162 µM
  relative viability: 0.438
Bosutinib + Decitabine; first compound 0.1 µM
  relative viability: 0.427
Bosutinib + Decitabine; first compound 1 µM
  relative viability: 0.424
Bosutinib + Vorinostat; first compound 0.01 µM
  relative viability: 0.605
Bosutinib + Vorinostat; first compound 0.03162 µM
  relative viability: 0.531
Bosutinib + Vorinostat; first compound 0.1 µM
  relative viability: 0.671
Bosutinib + Vorinostat; first compound 1 µM
  relative viability: 0.409
Bosutinib + Olaparib; first compound 0.01 µM
  relative viability: 0.824
Bosutinib + Olaparib; first compound 0.03162 µM
  relative viability: 0.769
Bosutinib + Olaparib; first compound 0.1 µM
  relative viability: 0.766
Bosutinib + Olaparib; first compound 1 µM
  relative viability: 0.538
